ChEMBL document CHEMBL1137657, “Identification of 16S rRNA methylase-producing Acinetobacter baumannii clinical strains in North America” (2007)
Calls of active or inactive are those of the source.

Columns and labels:
Escherichia coli [1] = experiment: Antimicrobial activity against azide-resistant Escherichia coli J53 transconjugant with 16S rRNA methylase armA gene expressing Acinetobacter baumannii isolate A; assay type: functional, organism-based
Escherichia coli [2] = experiment: Antimicrobial activity against azide-resistant Escherichia coli J53 transconjugant with 16S rRNA methylase armA gene expressing Acinetobacter baumannii isolate C; assay type: functional, organism-based
Escherichia coli [3] = experiment: Antibacterial activity against Escherichia coli DH10B expressing Acinetobacter baumannii isolate B 16S rRNA methylase armA gene; assay type: functional; conditions: K-12 substr. DH10B
Acinetobacter baumannii [4] = experiment: Antibacterial activity against Acinetobacter baumannii isolate D expressing 16S rRNA methylase armA gene; assay type: functional
Acinetobacter baumannii [5] = experiment: Antimicrobial activity against colistin-resistant Acinetobacter baumannii 213 transconjugant with 16S rRNA methylase armA gene expressing Acinetobacter baumannii isolate B; assay type: functional, organism-based
Escherichia coli [6] = experiment: Antimicrobial activity against azide-resistant Escherichia coli J53 transconjugant with 16S rRNA methylase armA gene expressing Acinetobacter baumannii isolate B; assay type: functional, organism-based
Acinetobacter baumannii [7] = experiment: Antibacterial activity against Acinetobacter baumannii isolate A expressing 16S rRNA methylase armA gene; assay type: functional
Acinetobacter baumannii [8] = experiment: Antibacterial activity against Acinetobacter baumannii isolate C expressing 16S rRNA methylase armA gene; assay type: functional
Escherichia coli [9] = experiment: Antimicrobial activity against azide-resistant Escherichia coli J53 transconjugant with 16S rRNA methylase armA gene expressing Acinetobacter baumannii isolate D; assay type: functional, organism-based
Acinetobacter baumannii [10] = experiment: Antimicrobial activity against colistin-resistant Acinetobacter baumannii 213 transconjugant with 16S rRNA methylase armA gene expressing Acinetobacter baumannii isolate A; assay type: functional, organism-based
Escherichia coli [11] = experiment: Antimicrobial activity against azide-resistant Escherichia coli J53 transconjugant with 16S rRNA methylase armA gene expressing Acinetobacter baumannii isolate E; assay type: functional, organism-based
Acinetobacter baumannii [12] = experiment: Antibacterial activity against armA knockout Acinetobacter baumannii 231; assay type: functional, organism-based
Acinetobacter baumannii [13] = experiment: Antibacterial activity against Acinetobacter baumannii isolate B expressing 16S rRNA methylase armA gene; assay type: functional
Acinetobacter baumannii [14] = experiment: Antimicrobial activity against colistin-resistant Acinetobacter baumannii 213 transconjugant with 16S rRNA methylase armA gene expressing Acinetobacter baumannii isolate D; assay type: functional, organism-based
Acinetobacter baumannii [15] = experiment: Antimicrobial activity against colistin-resistant Acinetobacter baumannii 213 transconjugant with 16S rRNA methylase armA gene expressing Acinetobacter baumannii isolate E; assay type: functional, organism-based
Acinetobacter baumannii [16] = experiment: Antimicrobial activity against colistin-resistant Acinetobacter baumannii 213 transconjugant with 16S rRNA methylase armA gene expressing Acinetobacter baumannii isolate C; assay type: functional, organism-based
Acinetobacter baumannii [17] = experiment: Antibacterial activity against Acinetobacter baumannii isolate E expressing 16S rRNA methylase armA gene; assay type: functional

NCC[C@H](O)C(=O)N[C@@H]1C[C@H](N)[C@@H](O[C@H]2O[C@H](CN)[C@@H](O)[C@H](O)[C@H]2O)[C@H](O)[C@H]1O[C@H]1O[C@H](CO)[C@@H](O)[C@H](N)[C@H]1O [AMIKACIN]
≥ 256 mg/L: MIC (Escherichia coli [3])
> 512 mg/L: MIC (Acinetobacter baumannii [4]) | MIC (Acinetobacter baumannii [7]) | MIC (Acinetobacter baumannii [8]) | MIC (Acinetobacter baumannii [13]) | MIC (Acinetobacter baumannii [17])
active: Activity (Escherichia coli [1]) | Activity (Escherichia coli [2]) | Activity (Acinetobacter baumannii [5]) | Activity (Escherichia coli [6]) | Activity (Escherichia coli [9]) | Activity (Acinetobacter baumannii [10]) | Activity (Escherichia coli [11]) | Activity (Acinetobacter baumannii [12]) | Activity (Acinetobacter baumannii [14]) | Activity (Acinetobacter baumannii [15]) | Activity (Acinetobacter baumannii [16])

NC[C@H]1O[C@H](O[C@H]2[C@H](O)[C@@H](O[C@H]3O[C@H](CO)[C@@H](O)[C@H](N)[C@H]3O)[C@H](N)C[C@@H]2N)[C@H](N)C[C@@H]1O [TOBRAMYCIN]
≥ 256 mg/L: MIC (Escherichia coli [3])
> 512 mg/L: MIC (Acinetobacter baumannii [4]) | MIC (Acinetobacter baumannii [7]) | MIC (Acinetobacter baumannii [8]) | MIC (Acinetobacter baumannii [13]) | MIC (Acinetobacter baumannii [17])

GENTAMICIN
> 256 mg/L: MIC (Escherichia coli [3])
> 512 mg/L: MIC (Acinetobacter baumannii [4]) | MIC (Acinetobacter baumannii [7]) | MIC (Acinetobacter baumannii [8]) | MIC (Acinetobacter baumannii [13]) | MIC (Acinetobacter baumannii [17])
